How the values were obtained:
Format in all cases: in vivo
Echinochloa crus-galli [1] = assay: Test Example 11: herbicidal effect test by soil treatment in paddy field; conditions: 120 g/10a active ingredient, 14 days after treatment
Summary of the method: (§1)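 Dry weight at day 14 relative to untreated controls gives the suppression rate; duplicate pots. Treatment: 120 g a.i./10 are into paddy water at sowing.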

Monochoria vaginalis [2] = assay: as above; conditions: 120 g/10a active ingredient, 14 days after treatment
Summary of the method: as §1

Lindernia pyxidaria [3] = assay: as above; conditions: 120 g/10a active ingredient, 14 days after treatment
Summary of the method: as §1

Scirpus juncoides [4] = assay: as above; conditions: 120 g/10a active ingredient, 14 days after treatment
Summary of the method: as §1

Chenopodium album [5] = assay: Test Example 14: herbicidal effect test by foliage treatment in upland field; conditions: 7 days after sowing, 120 g/10a, 14 days after treatment
Summary of the method: (§2)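 Emulsifiable concentrate, water-diluted, is applied post-emergence to 7-day-old sowings in field soil at 120 g active ingredient per 10 are. The weed suppression rate derives from average dry weights versus untreated controls, measured 14 days later.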

crabgrass [6] = assay: as above; conditions: 7 days after sowing, 120 g/10a, 14 days after treatment
Summary of the method: as §2

Echinochloa crus-galli [7] = assay: Test Example 12: herbicidal effect test by treatment during growing period in paddy field; conditions: 120 g/10a; treatment seven days after sowing in flooded paddy pot; assessed 14 days after treatment
Summary of the method: (§3)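 Water-diluted emulsifiable concentrate added dropwise to flooded pots (~3 cm water) 7 d after sowing; rate 120 g active ingredient per 10 are. Weeds grown from 30 seeds each in puddled paddy soil under greenhouse conditions. Dry-weight suppression rate relative to untreated plots determined 14 d after treatment, duplicates.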

Monochoria vaginalis [8] = assay: as above; conditions: 120 g/10a; treatment seven days after sowing in flooded paddy pot; assessed 14 days after treatment
Summary of the method: as §3

Lindernia pyxidaria [9] = assay: as above; conditions: 120 g/10a; treatment seven days after sowing in flooded paddy pot; assessed 14 days after treatment
Summary of the method: as §3

Scirpus juncoides [10] = assay: as above; conditions: 120 g/10a; treatment seven days after sowing in flooded paddy pot; assessed 14 days after treatment
Summary of the method: as §3

Echinochloa crus-galli [11] = assay: Test Example 14: herbicidal effect test by foliage treatment in upland field; conditions: 7 days after sowing, 120 g/10a, 14 days after treatment
Summary of the method: as §2

Amaranthus viridis [12] = assay: as above; conditions: 7 days after sowing, 120 g/10a, 14 days after treatment
Summary of the method: as §2

Echinochloa crus-galli [13] = assay: Test Example 13: herbicidal effect test by soil treatment in upland field; conditions: 120 g/10a, 14 days after treatment
Summary of the method: (§4)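 Soil-applied emulsifiable concentrate at 120 g active ingredient per 10 are, sprayed one day after seeding into alluvial soil pots. Dry-weight-based suppression scored at 14 days; two replications.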

Chenopodium album [14] = assay: as above; conditions: 120 g/10a, 14 days after treatment
Summary of the method: as §4

crabgrass [15] = assay: as above; conditions: 120 g/10a, 14 days after treatment
Summary of the method: as §4

Amaranthus viridis [16] = assay: as above; conditions: 120 g/10a, 14 days after treatment
Summary of the method: as §4

SMILES | Weed suppression rate (%) Echinochloa crus-galli (Echinochloa crus-galli [1]) [%] | Weed suppression rate (%) Monochoria vaginalis (Monochoria vaginalis [2]) [%] | Weed suppression rate (%) Lindemia pyxidaria (Lindernia pyxidaria [3]) [%] | Weed suppression rate (%) Scirpus juncoides (Scirpus juncoides [4]) [%] | herbicidal effect, Chenopodium album (Chenopodium album [5]) [%] | herbicidal effect, Crabgrass (crabgrass [6]) [%] | Weed suppression rate (%) Echinochloa crus-galli (Echinochloa crus-galli [7]) [%] | Weed suppression rate (%) Monochoria vaginalis (Monochoria vaginalis [8]) [%] | Weed suppression rate (%) Lindemia pyxidaria (Lindernia pyxidaria [9]) [%] | Weed suppression rate (%) Scirpus juncoides (Scirpus juncoides [10]) [%] | herbicidal effect, Echinochloa crus-galli (Echinochloa crus-galli [11]) [%] | herbicidal effect, Amaranthus viridis (Amaranthus viridis [12]) [%] | herbicidal effect, Echinochloa crus-galli (Echinochloa crus-galli [13]) [%] | herbicidal effect, Chenopodium album (Chenopodium album [14]) [%] | herbicidal effect, Crabgrass (crabgrass [15]) [%] | herbicidal effect, Amaranthus viridis (Amaranthus viridis [16]) [%]
Cc1ccc(S(=O)(=O)n2ncn(C(=O)N(c3ccc(F)cc3F)C(C)C)c2=O)cc1 [Compound 11-637] | 100 | 100 | 100 | 90 | 0 | 80 | 100 | 90 | 90 | 90 | 80 | 0 | 100 | 40 | 90 | 40
Cc1ccc(S(=O)(=O)n2ncn(C(=O)N(c3ccc(F)cc3Cl)C(C)C)c2=O)cc1 [Compound 11-644] | 90 | 80 | 80 | 90 | 80 | 90 | 90 | 80 | 80 | 90 | 80 | 90 | 80 | 80 | 90 | 90
CCc1ccc(S(=O)(=O)n2ncn(C(=O)N(c3ccc(F)cc3F)C(C)C)c2=O)cc1 [Compound 11-666] | 100 | 90 | 90 | 90 | 40 | 90 | 100 | 90 | 90 | 90 | 90 | 40 | 100 | 100 | 90 | 40
CC(C)N(C(=O)n1cnn(S(=O)(=O)c2ccc(C(C)(C)C)cc2)c1=O)c1ccc(Cl)cn1 [Compound 11-706] | 100 | 80 | 100 | 90 | 40 | 50 | 80 | 80 | 80 | 70 | 0 | 70 | 80 | 50 | 80 | 50
CC(C)N(C(=O)n1cnn(S(=O)(=O)c2c(F)cccc2F)c1=O)c1ccccc1 [Compound 11-762] | 90 | 90 | 90 | 40 | 60 | 90 | 80 | 90 | 60 | 80 | 90 | 70 | 80 | 60 | 90 | 60
CC(C)N(C(=O)n1cnn(S(=O)(=O)c2c(F)c(F)c(F)c(F)c2F)c1=O)c1ccccc1 [Compound 11-800] | 90 | 80 | 90 | 90 | 100 | 90 | 90 | 90 | 60 | 90 | 90 | 100 | 60 | 70 | 90 | 70
Cc1cc(C)c(S(=O)(=O)n2ncn(C(=O)N(c3ccccc3)C(C)C)c2=O)c(C)c1 [Compound 11-852] | 100 | 90 | 90 | 90 | 70 | 90 | 80 | 90 | 90 | 90 | 60 | 60 | 80 | 60 | 80 | 60
Cc1cc(C)c(S(=O)(=O)n2ncn(C(=O)N(c3ccc(F)cc3F)C(C)C)c2=O)c(C)c1 [Compound 11-863] | 100 | 100 | 100 | 100 | 70 | 60 | 90 | 90 | 90 | 90 | 70 | 50 | 60 | 50 | 70 | 50
Cc1cc(C)c(S(=O)(=O)n2ncn(C(=O)N(c3ccc(F)cc3Cl)C(C)C)c2=O)c(C)c1 [Compound 11-870] | 90 | 80 | 80 | 90 | 80 | 90 | 90 | 80 | 80 | 90 | 80 | 90 | 80 | 80 | 90 | 90
Cc1cc(C)c(S(=O)(=O)n2ncn(C(=O)N(c3ccc(F)cc3C)C(C)C)c2=O)c(C)c1 [Compound 11-876] | 100 | 100 | 100 | 100 | 30 | 100 | 100 | 100 | 100 | 100 | 90 | 30 | 100 | 100 | 100 | 70

Reference: patent publication US11076595B2, “1-(n,n-disubstituted carbamoyl) 4-(substituted sulfonyl)triazolin-5-one derivative, 4-(n,n-disubstituted carbamoyl) 1-(substituted sulfonyl)triazolin-5-one derivative, and herbicide containing said derivative as active ingredient” (HOKKO CHEMICAL INDUSTRY CO., LTD., priority 2017, dated 2021)
